Laboratory results from patent publication US11352374B2 (University of Alaska Anchorage, priority 2015, dated 2022).
Where “and” joins values, the source holds several entries; their conditions need not be identical. Equal entries are not always repeated. Where two headings read alike, the source gives them in different places. Each block holds one compound with its values, some of them ahead of it.

How the values were obtained:
[1] = Decomposition (amine release) in the presence of H2O2 monitored by 1H NMR; type: physicochemical; conditions: for Decomposition rate at 24 hours, 1H NMR, With 1.5x H2O2: 1.5 equivalents H2O2, 37° C.
Method: (§1) The two tested are the common ROS formed naturally in the cells—a non-radical hydrogen peroxide (H2O2) and Fenton reagent which is a more reactive hydroxyl radical (.OH) formed from Fe^2+ and H2O2. Four mole of CORCB compounds were mixed in an aqueous solution with ROS and incubated in a sealed vessel. At respective times, the head space air was injected into the meter to read the amount of CO produced. For analysis by NMR spectroscopy, the reaction mixture was prepared in NMR tube in D2O solvent and incubated for the amount of time indicated.
The reaction with H2O2 is slow-acting, therefore, NMR spectroscopy can be used for monitoring the rate.

[2] = CO released in the presence of Fenton reagent (hydroxyl radical), CO meter; type: physicochemical; conditions: per 5 minutes
Method: (§2) A test to confirm that CO is one of the decomposition products from CORCBs is done by utilizing commercially available CO meter. Four mole of the compounds at the concentrations of 6-12 mg/mL in aqueous solution was incubated at 37° C. in a sealed vessel with 50 mL gas space. CO meter was used to read the concentration of liberated CO gas from the solution. Measurement by CO meter in ppm, after converting to the micromole amount, was used for calculating the percent CO released based on the original amount of compound.
as §1, with “All amine carboxyboranes express a faster CO release rate when incubated with the reactive oxygen species. The” for “The”, “indicated. While some CORCBs have increased amount of CO produced when treated with 3 times equivalents of H2O2, CORCB-1 produces similar or less amount of CO. In every sample, either acid or salt form, the hydroxyl radical extracts the amount of CO to a much higher magnitude within a very short amount of time.” for “indicated.”

[3] = CO released on auto-decomposition in water at 37° C., head space measured with CO meter; type: physicochemical; conditions: for CO release rate at 24 hours, CO meter, Autodecomposition / % CO liberated at 24 hours by CO meter / CO release (in words), CO meter: 37° C., 24 hours; for Rate of % CO released by CORCBs, Autodecomposition / Rate of % CO released by CORCB sodium salts, Autodecomposition: per 24 hour
Method: as §2
CO liberated from the molecules and coming out to the head space are detected and quantified by using CO meter.

[4] = physchem; conditions: for CO release rate relative to CORCB-1: acid forms; for auto-decomposition of salts (in words): salts in D2O
Method: The kinetics of compound decomposition was followed by observing the ratio of the amount of free amine group to the original compound using ^1H NMR. For instance, Hexamethylenetetramine carboxyborane (CORCB-1) in D2O at the concentration of 12 mg/mL was incubated at 37° C. in the standard NMR tube. ^1H NMR spectra were obtained at different time points to study the kinetics of product formation. […] The ratio of integrated peaks were used for determining the percent of each species present and plotted as a function of time to show the kinetics of auto-decomposition.
^1H, ^11B, and ^13C NMR spectra were recorded at different time points to study the kinetics as well as to observe transformation of CORCB-1 into the products.
In order to determine whether CO is produced in physiological condition, CORCB acid forms were dissolved in aqueous solution at neutral pH. The solution was then subjected to incubation at 37° C. for extended period of time. For studies using NMR, CORCBs were dissolved in D2O. The kinetics of CORCB molecules breaking down to produce CO is determined by taking ^1H NMR spectra at various time points (FIG. 3).
CORCB sodium and ammonium salts were also tested for decomposition by using ^1H NMR spectroscopy. Samples were set up as in Example 1 and rate of decomposition measured (FIG. 4).

[5] = CO released in the presence of H2O2, CO meter; type: physicochemical; conditions: for CO released with 3 equivalents H2O2: 3 equivalents H2O2, 12 hours at 37° C. (FIG. 9); for Rate of % CO released by CORCBs, With H2O2: H2O2 equivalents not given
Method: as §2, §1

[6] = system: RAW264.7 cells; experiment: Cytotoxicity / cell viability, Cell Titer Blue assay
[7] = Solubility in water / D2O; conditions: water or D2O
[8] = system: normal human skin fibroblast cells (Hs 895.Sk)
Method: This was tested by using a chemotherapy drug, imatinib, in normal human skin fibroblast cells (Hs 895.Sk). The cultures were treated with 20 μM and 40 μM concentration of imatinib as controls to see their toxicity. Samples with mixtures of CORCB-1 and imatinib were also incubated and cell viability was determined on 2, 4, and 6 days. Media was exchanged every 2 days with fresh reagents.

[9] = system: normal fibroblast cells (Hs 895.Sk); experiment: Cell viability in DMEM without FBS, Cell Titer Blue, normal cells; conditions: 2 mM, 48 hours
Method: (§3) Cells were seeded at the density of 3×10^3 cells per well in 96-well plate with different concentrations of CORCBs in DMEM media without FBS, and incubated at 37° C. with 5% CO2 for 2 days.

[10] = system: fibroblast tumor cells (Hs 895.T) and normal fibroblast cells (Hs 895.Sk); conditions: human, 48 h, 1 mM
Method: as §3

[11] = 24 hours, 1.5 equivalents H2O2, 37° C.

SMILES: O=C(O)B[n+]1ccccc1
Decomposition rate at 24 hours, 1H NMR, With 1.5x H2O2 [1]: 37.50%
Rate of % CO released by CORCBs, With Fenton Reagent [2]: 72.64 ± 2.57%
CO release rate at 24 hours, CO meter, Autodecomposition [3]: 3%
Rate of % CO released by CORCBs, Autodecomposition [3]: 2.99 ± 0.06%
Decomposition rate at 24 hours, 1H NMR, Autodecomposition ([4]; 37° C.): 0.40%
CO release rate relative to CORCB-1 ([4]; D2O, 37° C.): much slower CO release rates than CORCB-1
CO released with 3 equivalents H2O2 [5]: about 10%
CO release rate at 24 hours, CO meter, With 1.5x H2O2 [5, 11]: 1.00%
Rate of % CO released by CORCBs, With H2O2 ([5]; per 24 hour): 20.22 ± 0.35%

SMILES: OO [H2O2, hydrogen peroxide, reference compound]
viability ([6]; 1 mM, after 24 hours, untreated cells = 100%): 44%

SMILES: CN1CCC[C@H]1c1ccc[n+](BC(=O)O)c1
Decomposition rate at 24 hours, 1H NMR, With 1.5x H2O2 [1]: 35.90%
% CO liberated at 24 hours by CO meter [3]: 0.86%
CO release (in words), CO meter [3]: much slower rate than the others
CO release rate at 24 hours, CO meter, Autodecomposition [3]: 0.86%
% decomposed at 24 hours by 1H NMR ([4]; 37° C.): 1.0%
Decomposition rate at 24 hours, 1H NMR, Autodecomposition ([4]; 37° C.): 1%
CO release rate relative to CORCB-1 ([4]; D2O, 37° C.): much slower CO release rates than CORCB-1
CO release rate at 24 hours, CO meter, With 1.5x H2O2 [5]: 0.50%

SMILES: O=C([O-])[BH2-][n+]1ccccc1.[Na+] [Na-CORCB-2]
Rate of % CO released by CORCB sodium salts, With Fenton Reagent [2]: 43.46 ± 0.73%
CO release rate at 24 hours, CO meter, Autodecomposition [3]: 0.36%
Rate of % CO released by CORCB sodium salts, Autodecomposition [3]: 0.36 ± 0.13%
Decomposition rate at 24 hours, 1H NMR, Autodecomposition ([4]; 37° C.): 0.46%
Rate of % CO released by CORCB sodium salts, With H2O2 ([5]; sodium salts, per 24 hour): 12.66 ± 0.21%

SMILES: C[N+](C)(C)[BH2-]C(=O)O [CORCB-3, trimethylamine carboxyborane]
Decomposition rate at 24 hours, 1H NMR, With 1.5x H2O2 [1]: 44.50%
Rate of % CO released by CORCBs, With Fenton Reagent [2]: 76.64 ± 1.33%
CO release (in words), CO meter [3]: negligible
Rate of % CO released by CORCBs, Autodecomposition [3]: 0.13 ± 0.01%
CO release rate relative to CORCB-1 ([4]; D2O, 37° C.): much slower CO release rates than CORCB-1
rate of auto-decomposition ([4]; as stated in Example 10): ~3 % per day
cytotoxicity / cell growth (in words) ([6]; 0.5-10 mM (up to 10 mM), 24 hours): not toxic at the levels tested
cell viability after the TNF-α assay (in words) ([6]; same cells as TNF-α assay): all cells remain viable
CO released with 3 equivalents H2O2 [5]: about 10%
CO release rate at 24 hours, CO meter, With 1.5x H2O2 [5, 11]: 2.70%
Rate of % CO released by CORCBs, With H2O2 ([5]; per 24 hour): 18.73 ± 0.24%

SMILES: CC12CC3CC(C)(C1)CC([NH2+][BH2-]C(=O)[O-])(C3)C2.[Na+] [Na-CORCB-4, Memantinecarboxyborane sodium salt]
% decomposition / free amine released by 1H NMR with H2O2 ([1]; 1.5 equivalents H2O2, 24 hours, sodium salt): 96.4% and ~100%
Decomposition rate at 24 hours, 1H NMR, With 1.5x H2O2 [1]: 96.40%
CO release rate at 24 hours, CO meter, Autodecomposition [3]: 0.06%
Decomposition rate at 24 hours, 1H NMR, Autodecomposition ([4]; 37° C.): not measurable
auto-decomposition of salts (in words) ([4]; 37° C., listed as Sodium salt of CORCB-4, sodium salt): insignificant amounts of decomposition
auto-decomposition of salts (in words) ([4]; 37° C., listed as sodium salt of CORCB-4, sodium salt): does not decompose in measurable amount
% CO produced by CO meter with H2O2 ([5]; 1.5 equivalents H2O2, 24 hours): 1.6%
CO release rate at 24 hours, CO meter, With 1.5x H2O2 [5, 11]: 1.60%
solubility in water [7]: soluble in water

SMILES: Cc1ccc(NC(=O)c2ccc(CN3CCN(C)CC3)cc2)cc1Nc1nccc(-c2cccnc2)n1 [imatinib]
cell viability with 20 μM imatinib (in words) ([8]; 20 μM, by 6 days): killed
cell viability with 40 μM imatinib (in words) ([8]; 40 μM, at 4 days): lose their viability

% CO liberated at 24 hours by CO meter [3]: 12.3%
CO release rate at 24 hours, CO meter, Autodecomposition [3]: 12.30%
% decomposed at 24 hours by 1H NMR ([4]; 37° C.): 11.3%
Decomposition rate at 24 hours, 1H NMR, Autodecomposition ([4]; 37° C.): 11.30%
time to decompose to completion ([4]; D2O, 37° C.): 12 days
SMILES: CC(=O)Nc1ccc(OC(=O)B[N+]23CN4CN(CN(C4)C2)C3)cc1 [CORCB-1-TY, hexamethylenetetramine carboacetaminophenborane]

SMILES: CC12CC3CC(C)(C1)CC([NH2+][BH2-]C(=O)O)(C3)C2.N [NH4-CORCB-4]
CO release rate at 24 hours, CO meter, Autodecomposition [3]: not soluble
Decomposition rate at 24 hours, 1H NMR, Autodecomposition ([4]; 37° C.): 12.80%
decomposition in 12 days ([4]; ammonium salt, 12 days, 37° C.): about 13%
solubility in water [7]: soluble in water

SMILES: C[C@]12CC3CC([NH2+][BH2-]C(=O)O)(C1)C[C@@](C)(C3)C2 [CORCB-4, memantine carboxyborane]
CO release rate at 24 hours, CO meter, Autodecomposition [3]: not soluble
Decomposition rate at 24 hours, 1H NMR, Autodecomposition ([4]; 37° C.): not soluble
solubility in water [7]: low solubility in water

SMILES: O=C([O-])[BH2-][NH2+]C12CC3CC(CC(C3)C1)C2.[Na+] [Na-CORCB-6, Amantadine carboxyborane sodium salt]
viability of normal fibroblast cells (in words) [9]: increasing the percent viability of normal fibroblast cells
Decomposition rate at 24 hours, 1H NMR, With 1.5x H2O2 [1]: 36.90%
CO release rate at 24 hours, CO meter, Autodecomposition [3]: 0.16%
Decomposition rate at 24 hours, 1H NMR, Autodecomposition ([4]; 37° C.): not measurable
CO release rate at 24 hours, CO meter, With 1.5x H2O2 [5, 11]: 0.80%

SMILES: O=C([O-])[BH2-][N+]12CN3CN(CN(C3)C1)C2.[Na+] [Na-CORCB-1]
Rate of % CO released by CORCB sodium salts, With Fenton Reagent [2]: 41.61 ± 0.57%
% CO liberated at 24 hours by CO meter [3]: 33%
CO release rate at 24 hours, CO meter, Autodecomposition [3]: 33.10%
Rate of % CO released by CORCB sodium salts, Autodecomposition [3]: 33.12 ± 0.33%
% decomposed at 24 hours by 1H NMR ([4]; 37° C.): 33.1%
Decomposition rate at 24 hours, 1H NMR, Autodecomposition ([4]; 37° C.): 33.20%
Rate of % CO released by CORCB sodium salts, With H2O2 [5]: 11.99 ± 0.19%

SMILES: N.O=C(O)[BH2-][n+]1ccccc1 [NH4-CORCB-2]
CO release rate at 24 hours, CO meter, Autodecomposition [3]: not measurable
Decomposition rate at 24 hours, 1H NMR, Autodecomposition ([4]; 37° C.): 0.03%

SMILES: C[N+](C)(C)[BH2-]C(=O)O [Na-CORCB-3]
Rate of % CO released by CORCB sodium salts, With Fenton Reagent [2]: 33.46 ± 0.90%
CO release rate at 24 hours, CO meter, Autodecomposition [3]: not measurable
Rate of % CO released by CORCB sodium salts, Autodecomposition [3]: 0.14 ± 0.02%
Decomposition rate at 24 hours, 1H NMR, Autodecomposition ([4]; 37° C.): not measurable
auto-decomposition of salts (in words) ([4]; 37° C.): insignificant amounts of decomposition
Rate of % CO released by CORCB sodium salts, With H2O2 ([5]; sodium salts, per 24 hour): 7.41 ± 0.16%

SMILES: NC12CC3CC(CC(C3)C1)C2 [Amantadine, reference compound]
cells left (viability) [10]: about 20%

SMILES: N.O=C(O)[BH2-][N+]12CN3CN(CN(C3)C1)C2 [NH4-CORCB-1]
CO release rate at 24 hours, CO meter, Autodecomposition [3]: 28.70%
Decomposition rate at 24 hours, 1H NMR, Autodecomposition ([4]; 37° C.): 26.40%

SMILES: C1N2CN3CN1CN(C2)C3 [HMTA, hexamethylenetetramine, reference compound]
cytotoxicity at 2 mM (in words) ([6]; 2 mM, 24 hours): most cells losing viability
